In the oligonucleotide strings, read from the 5' end, every base follows the letter of its sugar. An asterisk marks phosphorothioate; unmarked linkages are phosphodiester. Other units and linkages are bracketed, terminal groups are in braces. A string of capitals states the bases alone. e = 2'-O-(2-methoxyethyl) (MOE); [5mC] = 5-methylcytosine; d = 2'-deoxy (DNA)

Here are results for four substances from patent US20120083522A1, “MODULATION OF INFLAMMATORY RESPONSES BY FACTOR XI” (Isis Pharmaceuitcals, inc., priority 2009, published 2012).

One data set deals with human Factor XI mRNA. The data set is described as follows: Antisense inhibition in HepG2 cells by microwalk gapmers, 75 nM, lipofectin (Example 3). Format: cell-based. Particulars: HepG2 cells, 75 nM, oligonucleotides targeted to nucleobases 1275 to 1318 of SEQ ID NO: 1. How it is done:
These gapmers were designed by creating gapmers shifted slightly upstream and downstream (i.e. “microwalk”) of the original gapmers from Table 3. Gapmers were also created with various motifs, e.g. 5-10-5 MOE, 3-14-3 MOE, and 2-13-5 MOE. These gapmers were tested in vitro. Cultured HepG2 cells at a density of 10,000 cells per well were transfected using lipofectin reagent with 75 nM antisense oligonucleotide. After a treatment period of approximately 24 hours, RNA was isolated from the cells and Factor XI mRNA levels were measured by quantitative real-time PCR. Factor XI mRNA levels were adjusted according to total RNA content, as measured by RIBOGREEN®. Results are presented as percent inhibition of Factor XI, relative to untreated control cells.
The chimeric antisense oligonucleotides in Table 4 were designed as 5-10-5 MOE, 3-14-3 MOE, and 2-13-5 MOE gapmers. The first listed gapmers in Table 4 are the original gapmers (see Table 3) from which the remaining gapmers were designed via microwalk and are designated by an asterisk. The 5-10-5 gapmers are 20 nucleotides in length, wherein the central gap segment is comprised of 10 2′-deoxynucleotides and is flanked on both sides (in the 5′ and 3′ directions) by wings comprising 5 nucleotides each. The 3-14-3 gapmers are 20 nucleotides in length, wherein the central gap segment is comprised of 14 2′-deoxynucleotides and is flanked on both sides (in the 5′ and 3′ directions) by wings comprising 3 nucleotides each. The 2-13-5 gapmers are 20 nucleotides in length, wherein the central gap segment is comprised of 13 2′-deoxynucleotides. The central gap is flanked on the 5′ end with a wing comprising 2 nucleotides and on the 3′ end with a wing comprising 5 nucleotides. For each of the motifs (5-10-5, 3-14-3, and 2-13-5), each nucleotide in the 5′ wing segment and each nucleotide in the 3′ wing segment has a 2′-MOE modification. The internucleoside linkages throughout each gapmer are phosphorothioate (P═S) linkages. All cytidine residues throughout each gapmer are 5-methylcytidines. “Target start site” indicates the 5′-most nucleotide to which the gapmer is targeted. “Target stop site” indicates the 3′-most nucleotide to which the gapmer is targeted. Each gapmer listed in Table 4 is targeted to SEQ ID NO: 1 (GENBANK Accession No. NM_000128.3).
Turning to “417012 (antisense eG*eG*dA*d[5mC]*dG*dG*d[5mC]*dA*dT*dT*dG*dG*dT*dG*d[5mC]*eA*e[5mC]*eA*eG*eT) [compound 417012]”, the “% inhibition of human Factor XI mRNA levels” value worked out at 72%.
The same measure, in the same setting: for “417019 (antisense eT*eG*dG*d[5mC]*dA*dG*d[5mC]*dG*dG*dA*d[5mC]*dG*dG*d[5mC]*dA*eT*eT*eG*eG*eT) [compound 417019]” the value was 84%.

A further data set relates to human Factor XI mRNA. The data set is described as follows: Dose-dependent inhibition in HepG2 cells, lipofectin (Example 4). Particulars: 9.375 nM, 16 hours. The data set is classed as cell-based. How it is done:
(§1) Cells were plated at a density of 10,000 cells per well and transfected using lipofectin reagent with 9.375 nM, 18.75 nM, 37.5 nM and 75 nM concentrations of antisense oligonucleotide, as specified in Table 9. After a treatment period of approximately 16 hours, RNA was isolated from the cells and Factor XI mRNA levels were measured by quantitative real-time PCR. Human Factor XI primer probe set RTS 2966 was used to measure mRNA levels. Factor XI mRNA levels were adjusted according to total RNA content, as measured by RIBOGREEN®. Results are presented as percent inhibition of Factor XI, relative to untreated control cells.
“416969 (antisense eG*e[5mC]*d[5mC]*d[5mC]*dT*dT*d[5mC]*dA*dT*dG*dT*d[5mC]*dT*dA*dG*eG*eT*e[5mC]*e[5mC]*eA) [compound 416969]”: the “percent inhibition of Factor XI mRNA, relative to untreated control cells” value worked out at 17%.
Still for that read-out and setting: with “416972 (antisense eT*eA*dT*dG*d[5mC]*d[5mC]*d[5mC]*dT*dT*d[5mC]*dA*dT*dG*dT*d[5mC]*eT*eA*eG*eG*eT) [compound 416972]” the figure was 32%.

The same data set, now with this note: 18.75 nM, 16 hours.
Turning to “416969 (antisense eG*e[5mC]*d[5mC]*d[5mC]*dT*dT*d[5mC]*dA*dT*dG*dT*d[5mC]*dT*dA*dG*eG*eT*e[5mC]*e[5mC]*eA) [compound 416969]”, the “percent inhibition of Factor XI mRNA, relative to untreated control cells” value amounted to 39%.
Same read-out and setting: for “416972 (antisense eT*eA*dT*dG*d[5mC]*d[5mC]*d[5mC]*dT*dT*d[5mC]*dA*dT*dG*dT*d[5mC]*eT*eA*eG*eG*eT) [compound 416972]” the value was 40%.

Still in this data set, the particulars now being: 37.5 nM, 16 hours.
As for “416969 (antisense eG*e[5mC]*d[5mC]*d[5mC]*dT*dT*d[5mC]*dA*dT*dG*dT*d[5mC]*dT*dA*dG*eG*eT*e[5mC]*e[5mC]*eA) [compound 416969]”, the “percent inhibition of Factor XI mRNA, relative to untreated control cells” value was found to be 61%.
On the same count and under the same terms, for “416972 (antisense eT*eA*dT*dG*d[5mC]*d[5mC]*d[5mC]*dT*dT*d[5mC]*dA*dT*dG*dT*d[5mC]*eT*eA*eG*eG*eT) [compound 416972]” the value was 60%.

The same data set, now with this note: 75 nM, 16 hours.
Turning to “416969 (antisense eG*e[5mC]*d[5mC]*d[5mC]*dT*dT*d[5mC]*dA*dT*dG*dT*d[5mC]*dT*dA*dG*eG*eT*e[5mC]*e[5mC]*eA) [compound 416969]”, the “percent inhibition of Factor XI mRNA, relative to untreated control cells” value is 76%.
Still for that read-out and setting: with “416972 (antisense eT*eA*dT*dG*d[5mC]*d[5mC]*d[5mC]*dT*dT*d[5mC]*dA*dT*dG*dT*d[5mC]*eT*eA*eG*eG*eT) [compound 416972]” the figure was 69%.

In another data set the test system is human Factor XI mRNA. The data set is described as follows: Dose-dependent inhibition in HepG2 cells, electroporation (Example 4). Format: cell-based. Particulars: 0.7 μM, 16 hours. The method, then: as §1, with “The gapmers were also transfected via electroporation and their dose dependent inhibition of human Factor XI mRNA was measured. Cells” for “Cells”, “20,000” for “10,000”, “via electroporation” for “using lipofectin reagent”, “0.7 μM, 2.2 μM, 6.7 μM,” for “9.375 nM, 18.75 nM, 37.5 nM”, “20 μM” for “75 nM”, “10.” for “9.”
For the substance “416969 (antisense eG*e[5mC]*d[5mC]*d[5mC]*dT*dT*d[5mC]*dA*dT*dG*dT*d[5mC]*dT*dA*dG*eG*eT*e[5mC]*e[5mC]*eA) [compound 416969]”, the “percent inhibition of Factor XI mRNA, relative to untreated control cells” value is given as 25%.
Same read-out and setting: with “416972 (antisense eT*eA*dT*dG*d[5mC]*d[5mC]*d[5mC]*dT*dT*d[5mC]*dA*dT*dG*dT*d[5mC]*eT*eA*eG*eG*eT) [compound 416972]” the figure was 25%.

The data set is the same for the next values; noted with them: 2.2 μM, 16 hours.
In the case of “416969 (antisense eG*e[5mC]*d[5mC]*d[5mC]*dT*dT*d[5mC]*dA*dT*dG*dT*d[5mC]*dT*dA*dG*eG*eT*e[5mC]*e[5mC]*eA) [compound 416969]”, the “percent inhibition of Factor XI mRNA, relative to untreated control cells” value stood at 34%.
Same read-out and setting: with “416972 (antisense eT*eA*dT*dG*d[5mC]*d[5mC]*d[5mC]*dT*dT*d[5mC]*dA*dT*dG*dT*d[5mC]*eT*eA*eG*eG*eT) [compound 416972]” the figure was 30%.

The same data set, now with this note: 6.7 μM, 16 hours.
Turning to “416969 (antisense eG*e[5mC]*d[5mC]*d[5mC]*dT*dT*d[5mC]*dA*dT*dG*dT*d[5mC]*dT*dA*dG*eG*eT*e[5mC]*e[5mC]*eA) [compound 416969]”, the “percent inhibition of Factor XI mRNA, relative to untreated control cells” value was determined as 86%.
Still for that read-out and setting: for “416972 (antisense eT*eA*dT*dG*d[5mC]*d[5mC]*d[5mC]*dT*dT*d[5mC]*dA*dT*dG*dT*d[5mC]*eT*eA*eG*eG*eT) [compound 416972]” the value was 48%.

Staying with this data set, now noted: 20 μM, 16 hours.
“416969 (antisense eG*e[5mC]*d[5mC]*d[5mC]*dT*dT*d[5mC]*dA*dT*dG*dT*d[5mC]*dT*dA*dG*eG*eT*e[5mC]*e[5mC]*eA) [compound 416969]”: the “percent inhibition of Factor XI mRNA, relative to untreated control cells” value worked out at 92%.
Same read-out and setting: with “416972 (antisense eT*eA*dT*dG*d[5mC]*d[5mC]*d[5mC]*dT*dT*d[5mC]*dA*dT*dG*dT*d[5mC]*eT*eA*eG*eG*eT) [compound 416972]” the figure was 88%.
